Experimental data as given in the supplement of paper PMC12463676, “Small-molecule dissolution of stress granules by redox modulation benefits ALS models” (Nature Chemical Biology, 2025).

Assays:
lipoamide = compound: NC(=O)CCCCC1CCSS1 [lipoamide]; experiment: thermal stability z-score vs DMSO; higher = more thermally stabilized by treatment; details: HeLa, lipoamide concentration 100 µM
Description: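 Cellular thermal proteome profiling in HeLa cells. Cells were treated with 100 µM lipoamide for 1 h, with or without 1 mM arsenate for a further 1 h, then heated to ten temperatures (37-66.3 °C), and soluble protein was quantified by TMT mass spectrometry relative to 0.1% DMSO controls. The thermal stability score (sum of log2 fold changes minus the abundance score) was transformed to a z-score; mean of n = 3 experiments.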

potassium arsenate = compound: O=[As]([O-])(O)O.[K+] [potassium arsenate]; experiment: as above; details: HeLa; arsenate concentration 1 mM
Description: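 Cellular thermal proteome profiling in HeLa cells treated with 1 mM arsenate for 1 h (DMSO pretreatment), heated to ten temperatures (37-66.3 °C). Soluble protein was quantified by TMT mass spectrometry relative to DMSO controls; the thermal stability score was transformed to a z-score; mean of n = 3 experiments.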

[1] = arsenate co-treatment: 1 mM arsenate 1 h
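Also: each temperature applied for 3 min, abundance score taken as mean log2 fold change at the two lowest temperatures, z-score obtained by mean subtraction and division by SD.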

UniProt Q5T1C6, sequence (Q5T1C6 whole entry): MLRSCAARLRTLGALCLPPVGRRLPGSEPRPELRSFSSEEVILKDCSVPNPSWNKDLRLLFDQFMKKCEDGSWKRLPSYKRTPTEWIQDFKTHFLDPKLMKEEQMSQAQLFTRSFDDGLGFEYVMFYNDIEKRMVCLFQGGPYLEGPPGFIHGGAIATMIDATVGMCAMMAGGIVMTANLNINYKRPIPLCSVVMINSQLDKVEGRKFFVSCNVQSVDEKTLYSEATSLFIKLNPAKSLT
UniProt Q96ES7, sequence (Q96ES7 whole entry): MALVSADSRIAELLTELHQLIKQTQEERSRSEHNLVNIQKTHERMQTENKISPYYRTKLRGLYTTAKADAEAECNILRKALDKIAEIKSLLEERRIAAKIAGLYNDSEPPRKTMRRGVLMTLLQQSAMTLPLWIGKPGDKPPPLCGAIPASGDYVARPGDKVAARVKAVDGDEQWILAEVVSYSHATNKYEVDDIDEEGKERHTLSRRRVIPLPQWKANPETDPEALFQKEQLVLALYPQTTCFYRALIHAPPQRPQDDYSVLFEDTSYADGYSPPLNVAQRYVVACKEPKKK
UniProt Q5K651, sequence (Q5K651 whole entry): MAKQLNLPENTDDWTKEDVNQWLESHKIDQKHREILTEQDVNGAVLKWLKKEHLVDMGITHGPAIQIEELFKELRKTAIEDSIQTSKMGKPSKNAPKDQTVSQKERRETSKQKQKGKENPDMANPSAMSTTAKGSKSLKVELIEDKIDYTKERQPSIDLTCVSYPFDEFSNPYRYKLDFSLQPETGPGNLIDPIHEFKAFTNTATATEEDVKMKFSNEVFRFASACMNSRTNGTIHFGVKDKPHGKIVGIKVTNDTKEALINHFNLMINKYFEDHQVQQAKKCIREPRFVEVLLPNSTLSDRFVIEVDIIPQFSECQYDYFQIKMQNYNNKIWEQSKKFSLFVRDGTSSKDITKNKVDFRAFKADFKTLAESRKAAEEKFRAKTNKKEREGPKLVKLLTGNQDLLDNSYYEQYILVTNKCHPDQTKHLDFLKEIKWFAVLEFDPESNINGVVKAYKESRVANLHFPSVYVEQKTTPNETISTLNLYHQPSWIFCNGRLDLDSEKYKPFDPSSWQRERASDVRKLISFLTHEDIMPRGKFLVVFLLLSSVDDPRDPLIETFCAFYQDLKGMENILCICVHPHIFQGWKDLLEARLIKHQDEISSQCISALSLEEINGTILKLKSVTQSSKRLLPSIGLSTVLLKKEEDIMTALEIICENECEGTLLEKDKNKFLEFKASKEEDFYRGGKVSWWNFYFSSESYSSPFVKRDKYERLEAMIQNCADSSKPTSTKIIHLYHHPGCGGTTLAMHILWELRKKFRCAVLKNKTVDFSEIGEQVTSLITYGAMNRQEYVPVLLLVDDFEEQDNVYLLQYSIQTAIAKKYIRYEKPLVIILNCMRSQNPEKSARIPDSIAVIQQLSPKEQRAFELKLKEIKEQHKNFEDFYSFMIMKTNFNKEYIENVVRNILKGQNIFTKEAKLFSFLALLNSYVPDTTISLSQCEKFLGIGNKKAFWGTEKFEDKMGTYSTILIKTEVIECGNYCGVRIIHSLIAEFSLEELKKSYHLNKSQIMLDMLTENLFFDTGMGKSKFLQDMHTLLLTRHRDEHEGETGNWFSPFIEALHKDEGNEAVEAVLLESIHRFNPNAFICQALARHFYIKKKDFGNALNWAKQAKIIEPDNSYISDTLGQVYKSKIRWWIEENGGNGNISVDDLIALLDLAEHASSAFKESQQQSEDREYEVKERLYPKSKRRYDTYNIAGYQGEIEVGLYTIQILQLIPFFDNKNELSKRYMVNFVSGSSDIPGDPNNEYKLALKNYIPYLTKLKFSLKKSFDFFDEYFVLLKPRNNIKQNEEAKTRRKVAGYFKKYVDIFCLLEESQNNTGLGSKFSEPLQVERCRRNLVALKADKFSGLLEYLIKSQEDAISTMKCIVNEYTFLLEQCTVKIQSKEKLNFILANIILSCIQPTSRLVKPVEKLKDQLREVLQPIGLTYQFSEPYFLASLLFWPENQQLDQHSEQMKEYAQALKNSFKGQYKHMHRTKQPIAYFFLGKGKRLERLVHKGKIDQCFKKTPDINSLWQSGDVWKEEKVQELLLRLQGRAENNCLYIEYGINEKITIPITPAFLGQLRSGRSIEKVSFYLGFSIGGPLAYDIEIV
UniProt O75940, sequence (O75940 whole entry): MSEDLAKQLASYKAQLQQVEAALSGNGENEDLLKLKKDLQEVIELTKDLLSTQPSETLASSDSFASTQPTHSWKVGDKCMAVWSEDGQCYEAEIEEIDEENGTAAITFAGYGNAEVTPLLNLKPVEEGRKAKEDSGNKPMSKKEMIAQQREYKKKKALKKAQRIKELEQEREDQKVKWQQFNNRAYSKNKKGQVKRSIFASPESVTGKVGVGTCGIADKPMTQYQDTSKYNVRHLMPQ
UniProt Q6V1X1, sequence (Q6V1X1 whole entry, looked up): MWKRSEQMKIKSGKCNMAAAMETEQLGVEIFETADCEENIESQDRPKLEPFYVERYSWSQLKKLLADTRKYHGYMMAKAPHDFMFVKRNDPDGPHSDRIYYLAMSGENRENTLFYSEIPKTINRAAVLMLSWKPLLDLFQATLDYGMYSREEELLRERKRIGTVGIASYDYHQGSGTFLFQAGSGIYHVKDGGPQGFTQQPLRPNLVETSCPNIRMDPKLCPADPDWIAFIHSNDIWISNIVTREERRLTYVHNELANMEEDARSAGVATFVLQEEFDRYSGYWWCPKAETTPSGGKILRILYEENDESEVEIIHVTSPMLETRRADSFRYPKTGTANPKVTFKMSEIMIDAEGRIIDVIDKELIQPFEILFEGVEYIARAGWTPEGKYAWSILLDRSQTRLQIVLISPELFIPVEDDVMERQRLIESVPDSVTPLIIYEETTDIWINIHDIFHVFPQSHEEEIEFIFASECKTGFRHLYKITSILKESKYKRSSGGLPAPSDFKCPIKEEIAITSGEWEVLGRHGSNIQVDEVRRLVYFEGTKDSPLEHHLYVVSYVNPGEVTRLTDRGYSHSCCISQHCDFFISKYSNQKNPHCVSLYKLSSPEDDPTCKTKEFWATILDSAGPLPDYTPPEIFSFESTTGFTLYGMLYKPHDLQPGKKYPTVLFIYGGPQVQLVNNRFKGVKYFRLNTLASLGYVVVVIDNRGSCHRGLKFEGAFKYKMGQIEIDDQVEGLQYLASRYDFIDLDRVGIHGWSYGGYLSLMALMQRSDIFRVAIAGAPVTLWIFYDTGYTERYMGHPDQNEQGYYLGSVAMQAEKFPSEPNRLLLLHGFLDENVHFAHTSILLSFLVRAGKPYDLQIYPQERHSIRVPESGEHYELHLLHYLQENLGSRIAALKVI
UniProt O75907, sequence (O75907 whole entry): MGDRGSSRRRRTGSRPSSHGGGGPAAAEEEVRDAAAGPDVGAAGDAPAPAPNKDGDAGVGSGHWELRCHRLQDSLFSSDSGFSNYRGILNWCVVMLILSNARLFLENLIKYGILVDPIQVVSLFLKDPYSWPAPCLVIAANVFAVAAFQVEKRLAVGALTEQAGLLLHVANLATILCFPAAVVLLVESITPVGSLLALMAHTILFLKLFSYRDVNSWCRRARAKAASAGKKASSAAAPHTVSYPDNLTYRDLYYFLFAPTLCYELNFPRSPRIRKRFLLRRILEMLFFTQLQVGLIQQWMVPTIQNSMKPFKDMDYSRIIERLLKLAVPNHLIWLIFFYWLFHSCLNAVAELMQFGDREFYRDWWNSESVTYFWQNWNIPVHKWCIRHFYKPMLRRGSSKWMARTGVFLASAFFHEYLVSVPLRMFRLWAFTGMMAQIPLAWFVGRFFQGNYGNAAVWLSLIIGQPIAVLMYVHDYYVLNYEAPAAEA
UniProt P05549, sequence (P05549 whole entry): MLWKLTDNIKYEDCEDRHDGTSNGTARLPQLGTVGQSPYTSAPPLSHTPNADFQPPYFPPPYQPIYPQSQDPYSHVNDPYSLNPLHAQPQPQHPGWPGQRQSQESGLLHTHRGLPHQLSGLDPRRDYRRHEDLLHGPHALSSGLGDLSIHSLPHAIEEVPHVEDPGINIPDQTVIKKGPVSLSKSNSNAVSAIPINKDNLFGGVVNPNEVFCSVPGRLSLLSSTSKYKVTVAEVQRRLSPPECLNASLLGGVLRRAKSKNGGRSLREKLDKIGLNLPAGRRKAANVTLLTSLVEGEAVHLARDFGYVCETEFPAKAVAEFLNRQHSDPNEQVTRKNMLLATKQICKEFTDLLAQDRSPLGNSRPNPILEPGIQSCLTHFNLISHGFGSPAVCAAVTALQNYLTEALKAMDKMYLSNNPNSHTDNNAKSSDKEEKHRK
UniProt P36897, sequence (P36897 whole entry): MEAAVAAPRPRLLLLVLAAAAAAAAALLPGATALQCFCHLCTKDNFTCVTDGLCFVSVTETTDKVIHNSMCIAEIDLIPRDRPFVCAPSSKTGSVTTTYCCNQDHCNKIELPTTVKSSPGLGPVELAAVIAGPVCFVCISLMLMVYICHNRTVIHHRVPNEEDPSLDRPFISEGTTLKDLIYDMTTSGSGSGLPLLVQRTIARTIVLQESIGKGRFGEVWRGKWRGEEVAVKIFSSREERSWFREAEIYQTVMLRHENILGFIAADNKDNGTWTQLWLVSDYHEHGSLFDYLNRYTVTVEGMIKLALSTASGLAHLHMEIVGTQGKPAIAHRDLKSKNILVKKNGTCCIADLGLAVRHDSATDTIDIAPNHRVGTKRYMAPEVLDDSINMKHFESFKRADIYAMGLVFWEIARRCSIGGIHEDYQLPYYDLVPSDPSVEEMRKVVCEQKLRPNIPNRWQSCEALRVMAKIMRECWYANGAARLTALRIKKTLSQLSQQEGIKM
UniProt Q92530, sequence (Q92530 whole entry): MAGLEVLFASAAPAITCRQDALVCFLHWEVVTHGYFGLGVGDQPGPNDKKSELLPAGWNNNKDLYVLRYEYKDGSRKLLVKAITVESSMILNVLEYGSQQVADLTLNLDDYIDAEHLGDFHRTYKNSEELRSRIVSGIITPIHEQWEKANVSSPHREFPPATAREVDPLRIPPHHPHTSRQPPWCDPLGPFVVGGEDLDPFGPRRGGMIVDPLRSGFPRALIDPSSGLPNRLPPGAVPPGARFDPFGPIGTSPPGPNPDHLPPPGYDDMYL

| Target | thermal stability z-score (lipoamide; [1]) | thermal stability z-score (lipoamide; arsenate co-treatment: none) | thermal stability z-score (potassium arsenate) |
| --- | --- | --- | --- |
| TXN (UniProt P10599) | 0.913 | 0.827 | 0.598 |
| CEP192 (UniProt Q8TEP8) | -0.251 | -0.467 | 0.0297 |
| XPR1 (UniProt Q9UBH6) | -0.458 | -0.47 | 0.209 |
| EIF4E2 (UniProt O60573) | -0.568 | -0.113 | -1.43 |
| COMMD2 (UniProt Q86X83) | 0.00791 | -0.169 | -0.00764 |
| GSTCD (UniProt Q8NEC7) | 0.682 | 0.492 | -0.0694 |
| MEF2D (UniProt Q14814) | 0.00357 | 0.197 | 0.288 |
| MRPL55 (UniProt Q7Z7F7) | 0.0563 | 0.0521 | -0.38 |
| WDR33 (UniProt Q9C0J8) | 0.0589 | -0.0858 | -0.105 |
| CNOT2 (UniProt Q9NZN8) | -0.563 | 0.153 | 1.62 |
| TGFBR1 (UniProt P36897) | -0.829 | 0.245 | -0.162 |
| LYAR (UniProt Q9NX58) | -0.425 | -0.893 | -3.87 |
| ACTN1 (UniProt P12814) | 0.249 | 0.339 | 0.163 |
| ZBTB8OS (UniProt Q8IWT0) | -0.245 | 0.591 | -1.01 |
| UTP6 (UniProt Q9NYH9) | 0.13 | -0.00953 | 0.272 |
| MAN2B1 (UniProt O00754) | -1.18 | -0.63 | -0.312 |
| GPAT4 (UniProt Q86UL3) | -0.413 | 0.478 | -0.231 |
| DECR2 (UniProt Q9NUI1) | 1.26 | 1.15 | 1.27 |
| RRAS (UniProt P10301) | 0.632 | 0.351 | 0.844 |
| SGF29 (UniProt Q96ES7) | 0.571 | 0.347 | -1.03 |
| APC (UniProt P25054) | 0.728 | 0.273 | 0.816 |
| HSDL2 (UniProt Q6YN16) | 0.183 | 0.156 | 0.41 |
| SMNDC1 (UniProt O75940) | -0.102 | -0.117 | -0.5 |
| PSMF1 (UniProt Q92530) | -0.319 | -0.0828 | -0.0444 |

| Target | thermal stability z-score (lipoamide; [1]) | thermal stability z-score (lipoamide; arsenate co-treatment: none) | thermal stability z-score (potassium arsenate) |
| --- | --- | --- | --- |
| EPM2AIP1 (UniProt Q7L775) | -0.0474 | 0.0432 | -0.0491 |
| LAMB3 (UniProt Q13751) | -1.92 | -1.59 | 0.108 |
| SYPL1 (UniProt Q16563) | 0.951 | -0.0774 | 0.425 |
| VTI1A (UniProt Q96AJ9) | 0.054 | 0.419 | -0.0839 |
| CLCN7 (UniProt P51798) | -0.792 | -0.489 | 0.0852 |
| CCDC47 (UniProt Q96A33) | -0.4 | -0.332 | -1.21 |
| SLC19A1 (UniProt P41440) | -0.381 | -0.505 | 0.0431 |
| TFAP2A (UniProt P05549) | 0.831 | 0.868 | 0.566 |
| PPCS (UniProt Q9HAB8) | -0.183 | 0.122 | -0.328 |
| THEM4 (UniProt Q5T1C6) | -0.175 | -0.235 | -0.626 |
| EDC4 (UniProt Q6P2E9) | -0.258 | 0.0716 | -0.454 |
| CNNM3 (UniProt Q8NE01) | -0.728 | 0.192 | -0.561 |
| RNH1 (UniProt P13489) | 0.376 | 0.478 | -4.26 |
| HERC2 (UniProt O95714) | -0.947 | -1.04 | 0.0415 |
| TLDC1 (UniProt Q6P9B6) | -0.455 | -0.204 | -0.238 |
| UFL1 (UniProt O94874) | -0.791 | -0.41 | 0.145 |
| DHX34 (UniProt Q14147) | 0.0163 | -0.0341 | -0.164 |
| NFIB (UniProt O00712) | -1.17 | -0.437 | -0.0229 |
| UBE2K (UniProt P61086) | 0.398 | -0.0311 | -0.201 |
| SMG7 (UniProt Q92540) | -0.0753 | -0.0219 | -0.0408 |
| WBP2 (UniProt Q969T9) | 0.689 | 0.465 | -0.0559 |
| BAZ1B (UniProt Q9UIG0) | -0.152 | -0.073 | 0.21 |
| LAMP1 (UniProt P11279) | 0.396 | 0.531 | -0.0209 |
| MARVELD2 (UniProt Q8N4S9) | -0.452 | 0.477 | -0.292 |

| Target | thermal stability z-score (lipoamide; [1]) | thermal stability z-score (lipoamide; arsenate co-treatment: none) | thermal stability z-score (potassium arsenate) |
| --- | --- | --- | --- |
| SLC44A1 (UniProt Q8WWI5) | 0.347 | -0.0965 | -0.452 |
| MYO9B (UniProt Q13459) | -0.266 | -0.1 | -0.364 |
| DNAJA2 (UniProt O60884) | -0.922 | -1.05 | -0.26 |
| THUMPD2 (UniProt Q9BTF0) | -0.2 | -0.425 | 0.0998 |
| DGAT1 (UniProt O75907) | -0.44 | -0.27 | -0.264 |
| SAMD9 (UniProt Q5K651) | -0.0476 | -0.0624 | -0.13 |
| DCTPP1 (UniProt Q9H773) | 1.22 | 0.682 | 0.499 |
| PIGU (UniProt Q9H490) | -0.834 | -0.665 | 0.169 |
| SGMS2 (UniProt Q8NHU3) | -1.39 | -0.337 | -1.22 |
| SGPL1 (UniProt O95470) | 0.442 | 0.255 | -0.584 |
| PACS1 (UniProt Q6VY07) | -0.0876 | 0.134 | 0.404 |
| FOXRED1 (UniProt Q96CU9) | -0.111 | -0.24 | 0.0548 |
| SEC24A (UniProt O95486) | -0.232 | -0.0421 | 0.178 |
| MTX1 (UniProt Q13505) | -0.275 | 0.061 | 0.421 |
| TAPT1 (UniProt Q6NXT6) | 0.869 | 0.562 | -0.606 |
| HSPA14 (UniProt Q0VDF9) | -0.553 | -0.226 | 0.837 |
| PHLDB2 (UniProt Q86SQ0) | -1.07 | -0.89 | -0.277 |
| DPP8 (UniProt Q6V1X1) | 0.32 | 0.543 | 0.257 |
| GPATCH4 (UniProt Q5T3I0) | 1.04 | 0.36 | 0.695 |
| DRAP1 (UniProt Q14919) | -0.781 | -0.122 | -0.503 |
| SSR2 (UniProt P43308) | 0.441 | -0.158 | 0.191 |
| EARS2 (UniProt Q5JPH6) | -1 | -0.188 | 0.0121 |
| SKP2 (UniProt Q13309) | -0.219 | -0.122 | -0.872 |
